The text below walks through data of ChEMBL document CHEMBL5291721, “A preclinical secondary pharmacology resource illuminates target-adverse drug reaction associations of marketed drugs” (Nat Commun, 2023).

For assay [1], the target named is T1, D(4) dopamine receptor (Homo sapiens, UniProt P21917).
T1 sequence (P21917 whole entry): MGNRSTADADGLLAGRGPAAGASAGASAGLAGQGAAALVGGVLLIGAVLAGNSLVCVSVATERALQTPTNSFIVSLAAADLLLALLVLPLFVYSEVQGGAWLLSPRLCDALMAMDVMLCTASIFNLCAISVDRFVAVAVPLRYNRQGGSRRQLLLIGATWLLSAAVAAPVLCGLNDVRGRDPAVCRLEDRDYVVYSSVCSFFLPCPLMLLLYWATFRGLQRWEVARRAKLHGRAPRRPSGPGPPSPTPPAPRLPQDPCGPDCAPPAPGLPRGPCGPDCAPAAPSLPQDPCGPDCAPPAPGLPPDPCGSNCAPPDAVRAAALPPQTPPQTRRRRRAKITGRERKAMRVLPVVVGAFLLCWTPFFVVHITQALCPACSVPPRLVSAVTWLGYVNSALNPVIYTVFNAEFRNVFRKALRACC

Assay [2] concerns the target Glucagon receptor (Homo sapiens, UniProt P47871).
The target in assay [3] is T2, Gastric inhibitory polypeptide receptor (Homo sapiens, UniProt P48546).
T2 sequence (P48546 whole entry): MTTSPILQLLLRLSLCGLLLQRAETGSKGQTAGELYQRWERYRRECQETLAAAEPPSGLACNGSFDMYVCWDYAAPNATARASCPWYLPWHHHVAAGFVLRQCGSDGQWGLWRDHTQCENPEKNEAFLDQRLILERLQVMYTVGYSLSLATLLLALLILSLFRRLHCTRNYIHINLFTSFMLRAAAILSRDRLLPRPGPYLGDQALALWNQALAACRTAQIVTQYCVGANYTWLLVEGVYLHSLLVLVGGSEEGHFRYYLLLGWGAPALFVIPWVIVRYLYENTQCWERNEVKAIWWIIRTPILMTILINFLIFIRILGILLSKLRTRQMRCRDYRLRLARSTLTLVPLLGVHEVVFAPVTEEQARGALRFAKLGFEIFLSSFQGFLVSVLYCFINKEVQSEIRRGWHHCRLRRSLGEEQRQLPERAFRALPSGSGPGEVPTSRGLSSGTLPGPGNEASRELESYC

For assay [4], the target named is Histamine H2 receptor (Homo sapiens, UniProt P25021).
Sequence of Histamine H2 receptor (P25021 whole entry): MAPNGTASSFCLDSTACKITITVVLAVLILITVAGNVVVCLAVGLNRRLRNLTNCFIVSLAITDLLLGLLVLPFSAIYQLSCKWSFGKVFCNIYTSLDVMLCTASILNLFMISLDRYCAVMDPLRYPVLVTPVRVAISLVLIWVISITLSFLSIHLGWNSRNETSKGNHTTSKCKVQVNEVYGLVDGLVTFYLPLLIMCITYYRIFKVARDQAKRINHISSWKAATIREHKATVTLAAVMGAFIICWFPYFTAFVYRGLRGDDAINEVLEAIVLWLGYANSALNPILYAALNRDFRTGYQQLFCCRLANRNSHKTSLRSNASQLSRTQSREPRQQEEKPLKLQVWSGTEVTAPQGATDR
Assay [5] deals with T3, Neuropeptide Y receptor type 2 (Homo sapiens, UniProt P49146).
T3 sequence (P49146 whole entry): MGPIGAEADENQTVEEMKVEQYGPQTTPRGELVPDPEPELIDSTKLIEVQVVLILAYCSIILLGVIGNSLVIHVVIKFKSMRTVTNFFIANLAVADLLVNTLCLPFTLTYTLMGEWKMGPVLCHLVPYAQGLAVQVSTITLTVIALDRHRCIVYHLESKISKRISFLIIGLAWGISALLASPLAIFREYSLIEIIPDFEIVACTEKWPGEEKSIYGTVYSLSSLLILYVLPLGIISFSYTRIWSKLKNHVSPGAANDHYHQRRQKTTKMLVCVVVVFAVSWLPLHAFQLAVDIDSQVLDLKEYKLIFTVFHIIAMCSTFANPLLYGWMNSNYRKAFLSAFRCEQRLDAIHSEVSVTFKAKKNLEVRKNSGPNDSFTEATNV

Assay [6] concerns the target D(1A) dopamine receptor (Homo sapiens, UniProt P21728).
Assay [7] deals with Voltage-dependent L-type calcium channel subunit alpha-1C (Homo sapiens, UniProt Q13936). The assay is classed as functional, cell-based.
Sequence of Voltage-dependent L-type calcium channel subunit alpha-1C (Q13936 whole entry): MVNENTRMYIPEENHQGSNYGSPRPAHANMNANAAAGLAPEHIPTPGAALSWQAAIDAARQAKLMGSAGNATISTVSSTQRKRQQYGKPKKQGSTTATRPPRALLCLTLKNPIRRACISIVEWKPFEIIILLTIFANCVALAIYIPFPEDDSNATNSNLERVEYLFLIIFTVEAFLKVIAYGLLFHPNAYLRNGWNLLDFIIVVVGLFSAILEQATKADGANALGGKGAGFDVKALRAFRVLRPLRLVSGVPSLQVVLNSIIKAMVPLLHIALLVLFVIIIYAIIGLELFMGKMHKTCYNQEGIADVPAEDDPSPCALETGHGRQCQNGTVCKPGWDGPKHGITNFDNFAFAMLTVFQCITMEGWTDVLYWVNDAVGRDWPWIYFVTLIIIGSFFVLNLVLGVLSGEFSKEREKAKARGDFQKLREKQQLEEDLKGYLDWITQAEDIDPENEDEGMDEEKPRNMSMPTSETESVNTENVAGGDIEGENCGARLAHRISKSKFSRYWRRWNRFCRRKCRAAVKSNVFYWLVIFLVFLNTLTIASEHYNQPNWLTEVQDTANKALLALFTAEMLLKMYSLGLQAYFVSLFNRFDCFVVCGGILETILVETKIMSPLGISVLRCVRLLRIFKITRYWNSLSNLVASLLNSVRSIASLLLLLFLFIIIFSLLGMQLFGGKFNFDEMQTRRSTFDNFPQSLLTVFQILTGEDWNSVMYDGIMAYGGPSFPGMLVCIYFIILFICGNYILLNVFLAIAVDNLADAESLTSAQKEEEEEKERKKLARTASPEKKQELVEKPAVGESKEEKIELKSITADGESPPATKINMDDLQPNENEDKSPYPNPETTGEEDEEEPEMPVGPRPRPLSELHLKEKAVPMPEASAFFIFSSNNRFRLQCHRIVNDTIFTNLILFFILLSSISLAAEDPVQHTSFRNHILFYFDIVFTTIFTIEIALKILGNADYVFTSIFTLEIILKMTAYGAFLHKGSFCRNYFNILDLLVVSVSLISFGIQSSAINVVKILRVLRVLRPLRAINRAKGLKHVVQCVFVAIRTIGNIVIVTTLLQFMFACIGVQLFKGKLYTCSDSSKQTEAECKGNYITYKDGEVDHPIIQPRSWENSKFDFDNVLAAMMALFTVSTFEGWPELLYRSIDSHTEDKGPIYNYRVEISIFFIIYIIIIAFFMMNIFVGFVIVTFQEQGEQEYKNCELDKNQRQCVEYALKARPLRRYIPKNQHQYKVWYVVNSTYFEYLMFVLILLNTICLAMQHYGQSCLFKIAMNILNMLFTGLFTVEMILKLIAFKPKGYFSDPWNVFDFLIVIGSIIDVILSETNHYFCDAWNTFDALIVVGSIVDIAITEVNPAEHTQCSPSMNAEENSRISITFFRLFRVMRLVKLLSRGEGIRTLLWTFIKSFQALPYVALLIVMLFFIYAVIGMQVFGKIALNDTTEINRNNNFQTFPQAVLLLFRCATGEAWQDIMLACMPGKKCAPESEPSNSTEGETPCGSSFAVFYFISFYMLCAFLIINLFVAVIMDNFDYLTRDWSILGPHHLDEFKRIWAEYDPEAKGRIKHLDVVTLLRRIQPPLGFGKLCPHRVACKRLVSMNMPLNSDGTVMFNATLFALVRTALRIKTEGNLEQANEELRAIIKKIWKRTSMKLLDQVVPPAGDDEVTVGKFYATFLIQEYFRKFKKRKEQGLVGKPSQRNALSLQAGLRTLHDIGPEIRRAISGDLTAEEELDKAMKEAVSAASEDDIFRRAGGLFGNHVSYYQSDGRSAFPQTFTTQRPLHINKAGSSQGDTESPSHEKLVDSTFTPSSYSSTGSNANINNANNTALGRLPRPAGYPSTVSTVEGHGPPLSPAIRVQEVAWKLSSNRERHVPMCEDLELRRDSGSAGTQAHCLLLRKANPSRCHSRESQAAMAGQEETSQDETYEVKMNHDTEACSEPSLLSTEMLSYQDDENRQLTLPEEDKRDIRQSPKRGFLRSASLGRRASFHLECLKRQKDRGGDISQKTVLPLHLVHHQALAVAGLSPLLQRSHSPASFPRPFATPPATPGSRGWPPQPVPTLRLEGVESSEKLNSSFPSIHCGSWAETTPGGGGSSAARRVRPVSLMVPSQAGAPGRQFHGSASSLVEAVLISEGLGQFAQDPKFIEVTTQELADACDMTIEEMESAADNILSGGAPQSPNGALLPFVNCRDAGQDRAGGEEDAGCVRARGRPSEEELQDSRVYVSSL
The target in assay [8] is T4, Glucocorticoid receptor (Homo sapiens, UniProt P04150).
T4 sequence (P04150 whole entry): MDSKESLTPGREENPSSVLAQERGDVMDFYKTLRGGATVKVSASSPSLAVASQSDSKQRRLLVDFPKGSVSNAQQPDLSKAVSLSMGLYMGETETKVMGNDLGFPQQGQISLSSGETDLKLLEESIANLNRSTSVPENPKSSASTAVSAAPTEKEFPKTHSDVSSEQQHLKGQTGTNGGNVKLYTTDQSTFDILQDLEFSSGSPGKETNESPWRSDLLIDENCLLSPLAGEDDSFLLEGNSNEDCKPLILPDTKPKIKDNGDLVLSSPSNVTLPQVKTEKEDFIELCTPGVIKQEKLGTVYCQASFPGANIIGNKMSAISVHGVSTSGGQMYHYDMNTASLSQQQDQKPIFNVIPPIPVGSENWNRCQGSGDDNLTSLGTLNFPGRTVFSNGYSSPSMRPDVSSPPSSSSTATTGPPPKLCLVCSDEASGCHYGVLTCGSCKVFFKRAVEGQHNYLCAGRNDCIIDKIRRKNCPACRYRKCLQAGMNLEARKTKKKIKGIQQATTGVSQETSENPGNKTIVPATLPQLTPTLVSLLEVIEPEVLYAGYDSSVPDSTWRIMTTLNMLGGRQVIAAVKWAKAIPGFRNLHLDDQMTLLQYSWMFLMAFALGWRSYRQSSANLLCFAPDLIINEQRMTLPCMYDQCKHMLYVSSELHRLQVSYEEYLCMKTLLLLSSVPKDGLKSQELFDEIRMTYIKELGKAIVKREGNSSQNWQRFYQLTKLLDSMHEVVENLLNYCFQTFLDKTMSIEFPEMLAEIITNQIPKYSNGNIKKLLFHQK
It counts as functional.
Also: assay procedure not described here.

Sequence of D(1A) dopamine receptor (P21728 whole entry): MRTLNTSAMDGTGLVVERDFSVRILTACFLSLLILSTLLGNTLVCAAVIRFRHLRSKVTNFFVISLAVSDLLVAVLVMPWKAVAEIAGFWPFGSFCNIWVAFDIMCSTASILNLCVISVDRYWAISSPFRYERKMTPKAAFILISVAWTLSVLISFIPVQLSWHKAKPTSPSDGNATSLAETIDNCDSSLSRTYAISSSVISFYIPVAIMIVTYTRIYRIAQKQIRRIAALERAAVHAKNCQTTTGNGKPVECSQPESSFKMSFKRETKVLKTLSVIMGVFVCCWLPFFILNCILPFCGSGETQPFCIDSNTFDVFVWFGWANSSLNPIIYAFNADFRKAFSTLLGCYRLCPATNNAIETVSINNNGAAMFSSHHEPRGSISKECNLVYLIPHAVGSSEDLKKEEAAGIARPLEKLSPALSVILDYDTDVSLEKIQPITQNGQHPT
Sequence of Glucagon receptor (P47871 whole entry): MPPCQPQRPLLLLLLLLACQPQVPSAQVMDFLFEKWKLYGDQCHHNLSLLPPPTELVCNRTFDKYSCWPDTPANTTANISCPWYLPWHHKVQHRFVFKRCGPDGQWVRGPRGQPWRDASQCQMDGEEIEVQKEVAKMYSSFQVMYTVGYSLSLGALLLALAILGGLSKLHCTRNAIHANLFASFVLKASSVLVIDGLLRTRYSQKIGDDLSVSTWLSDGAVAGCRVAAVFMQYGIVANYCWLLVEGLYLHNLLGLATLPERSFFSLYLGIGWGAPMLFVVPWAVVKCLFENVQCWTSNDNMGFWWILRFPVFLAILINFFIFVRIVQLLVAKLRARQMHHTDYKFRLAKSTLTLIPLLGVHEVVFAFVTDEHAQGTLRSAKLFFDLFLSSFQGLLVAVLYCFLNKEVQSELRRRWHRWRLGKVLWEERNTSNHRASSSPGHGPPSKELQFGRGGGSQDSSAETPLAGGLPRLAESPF

A word on the AC50: it is the concentration at which the activity in the assay is half-maximal. As for `N=C(N)NC(=O)c1nc(Cl)c(N)nc1N` [AMILORIDE], the AC50 is > 10 µM in assay [1]; > 30 µM in assay [2]; > 30 µM in assay [3]; > 10 µM in assay [4]; > 30 µM in assay [5]; > 10 µM in assay [6].
For `COc1cccc2c1C(=O)c1c(O)c3c(c(O)c1C2=O)C[C@@](O)(C(=O)CO)C[C@@H]3O[C@H]1C[C@H](N)[C@H](O)[C@H](C)O1` [DOXORUBICIN], the concentration at half-maximal activity (AC50) in assay [7] is > 50 µM; in assay [8], 11 µM.
Consider `C[C@]12C=CC(=O)C=C1CC[C@@H]1[C@@H]2[C@@H](O)C[C@@]2(C)[C@H]1CC[C@]2(O)C(=O)CO` [PREDNISOLONE], for which the AC50 in assay [2], in assay [3] and in assay [5] was > 30 µM in each case.
With `C[C@@H]1CN(c2c(F)c(N)c3c(=O)c(C(=O)O)cn(C4CC4)c3c2F)C[C@H](C)N1` [SPARFLOXACIN], the AC50 in assay [7] was > 50 µM.
With `Cc1ccc(O)c([C@H](CCN(C(C)C)C(C)C)c2ccccc2)c1` [TOLTERODINE], the AC50 in assay [1] was > 10 µM; in assay [4], 3.2 µM; in assay [6], > 10 µM.
Compound `CC1(C)O[C@@H]2C[C@H]3[C@@H]4CCC5=CC(=O)C=C[C@]5(C)[C@@]4(F)[C@@H](O)C[C@]3(C)[C@]2(C(=O)CO)O1` [TRIAMCINOLONE ACETONIDE] gave an AC50 in assay [8] of 0.0039 µM.
